Laboratory results reported in article PMC9502896 (Nutrients, 2022).
Where “and” joins values, the source holds several entries; their conditions need not be identical. Equal entries are not always repeated. Where two headings read alike, the source gives them in different places. Blank lines part the entries; values can stand above or below the molecule they belong to.

Columns and labels:
[1] = target: T1, hMAO-A (Homo sapiens, UniProt P21397); assay: In vitro hMAO inhibitory assay (luminometric), MAO-A; type: biochemical
T1 construct: purchased Sigma-Aldrich
T1 sequence (P21397 1-527): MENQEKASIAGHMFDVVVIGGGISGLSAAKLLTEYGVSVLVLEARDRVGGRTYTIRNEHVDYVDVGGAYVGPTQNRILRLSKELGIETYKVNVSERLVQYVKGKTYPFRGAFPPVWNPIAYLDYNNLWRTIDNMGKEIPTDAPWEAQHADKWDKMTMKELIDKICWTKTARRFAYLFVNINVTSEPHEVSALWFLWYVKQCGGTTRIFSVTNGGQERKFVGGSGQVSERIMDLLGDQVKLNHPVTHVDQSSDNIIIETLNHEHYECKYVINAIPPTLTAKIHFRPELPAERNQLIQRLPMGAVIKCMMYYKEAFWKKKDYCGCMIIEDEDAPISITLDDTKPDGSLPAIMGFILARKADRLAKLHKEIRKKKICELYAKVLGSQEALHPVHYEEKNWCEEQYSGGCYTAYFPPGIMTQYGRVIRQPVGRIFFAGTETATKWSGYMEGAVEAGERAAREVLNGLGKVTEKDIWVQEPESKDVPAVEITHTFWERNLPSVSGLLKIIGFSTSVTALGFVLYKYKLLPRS
Method: (§1) The inhibitory potential of the P. lobata-derived phytochemicals against MAO was evaluated through the luminometric method. Various doses of phytoestrogens in 0.1 M HEPES buffer (pH 7.5) with 5% 1,2,3-propanetriol for MAO-A and 5% 1,2,3-propanetriol and 10% dimethyl sulfoxide for MAO-B were mixed with the substrate (160 µM for MAO-A and 16 µM for MAO-B) and 0.5 µg of the enzyme and incubated at 25 °C. After 1 h incubation, reconstituted luciferin-detection reagent was added to the reaction mixture and incubated at 25 °C for 20 min. After that, luminescent signals were monitored using a microplate reader (Biotek, Winooski, VT, USA).
(§2) In addition, since factors such as organic solvents, metal ions (such as Cu^2+, Cd^2+, and Al^3+), pH, and temperature affect MAO activity, the assay was conducted in a well-controlled laboratory environment. The optimal conditions for the enzymatic reaction, including reaction time, temperature, pH, and the concentrations of the enzyme and substrate, were established based on the previous study. All the test samples were diluted in a reaction buffer containing 10% or less DMSO, and the solvent-control group was tested together for each assay to minimize false-positive/false-negative effects.

[2] = target: T2, hMAO-B (Homo sapiens, UniProt P27338); assay: In vitro hMAO inhibitory assay (luminometric), MAO-B; type: biochemical; conditions: 16 µM substrate, 0.5 µg enzyme, 25 °C, 1 h; read-out: hMAO-B IC50 (Mean ± SD)
T2 construct: purchased Sigma-Aldrich
T2 sequence (P27338 1-520): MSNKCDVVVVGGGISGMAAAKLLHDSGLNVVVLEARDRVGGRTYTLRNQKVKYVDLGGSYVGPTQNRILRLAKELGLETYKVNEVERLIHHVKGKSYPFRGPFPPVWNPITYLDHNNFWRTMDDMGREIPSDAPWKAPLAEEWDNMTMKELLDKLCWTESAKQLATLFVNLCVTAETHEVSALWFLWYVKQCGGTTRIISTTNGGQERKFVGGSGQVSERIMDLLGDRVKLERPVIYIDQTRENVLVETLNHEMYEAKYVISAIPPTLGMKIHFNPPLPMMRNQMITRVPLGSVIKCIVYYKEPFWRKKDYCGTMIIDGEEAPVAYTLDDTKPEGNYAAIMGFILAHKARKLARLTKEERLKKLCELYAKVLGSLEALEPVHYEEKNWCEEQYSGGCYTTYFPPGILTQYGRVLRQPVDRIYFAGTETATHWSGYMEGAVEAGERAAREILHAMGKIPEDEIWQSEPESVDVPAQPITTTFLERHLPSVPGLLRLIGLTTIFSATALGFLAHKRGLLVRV
Method: as §1, §2

[3] = target: T3, Aβ25–35 (Homo sapiens, UniProt P05067); assay: Self Aβ25–35 aggregation assay (thioflavin-T fluorescence); type: biochemical; conditions: for decrease of Aβ25–35 self-aggregation compared to control: 100 μM compound, 24 h of incubation
T3 construct: amyloid β peptide 25–35 (Aβ25–35); purchased Sigma-Aldrich
Method: The Aβ25–35 self-aggregation assay was performed following the method described by Naldi et al.. First, peptide was pretreated with HFIP for 1 day at 22 °C to obtain non-amyloidogenic conformation. […] After incubation, the reaction mixture was supplemented with 0.025 mM thioflavin-T in 50 mM glycine–NaOH buffer (pH 8.5). The fluorescence emission was monitored at 490 nm with excitation at 446 nm using the Gemini XPS (Molecular Devices, Sunnyvale, CA, USA).

[4] = target: T1, hMAO-A; assay: Kinetic assay for hMAO-A (Lineweaver-Burk and secondary plots); type: biochemical
Method: The experimental method was the same as that used for the hMAO inhibitory assay; 0.5 µg of enzyme, 40–160 µM substrate and 0, 2.5, 10, and 20 µM coumestrol were used. A Lineweaver–Burk plot (LB plot) was generated using SigmaPlot 12.0 based on the results of the kinetic assay and secondary plots of the LB plot (LB-2nd plot) were generated using the exploratory EK macro module (Table S1).
The equation for the LB plot is as follows:(1) […]

[5] = tested on: β-secretase; set-up: method as in PMID 29597336; conditions: cited from earlier work
[6] = tested on: mouse astrocytes; set-up: method as in PMID 21708076; conditions: nanomolar concentration; Aβ-induced cytotoxicity and inflammatory cytokine levels; cited from earlier work
[7] = tested on: MAO-A; conditions: cited from earlier work
[8] = tested on: MAO-B; conditions: cited from earlier work
[9] = 160 µM substrate, 0.5 µg enzyme, 25 °C, 1 h, read-out: hMAO-A IC50 (Mean ± SD)
[10] = Screening active compound, 100 μM
[11] = substrate 40 μM, coumestrol 2.5 μM
[12] = substrate 40 μM, coumestrol 10 μM
[13] = substrate 40 μM, coumestrol 20 μM
[14] = substrate 80 μM, coumestrol 2.5 μM
[15] = substrate 80 μM, coumestrol 10 μM
[16] = substrate 80 μM, coumestrol 20 μM
[17] = substrate 160 μM, coumestrol 2.5 μM
[18] = substrate 160 μM, coumestrol 10 μM
[19] = substrate 160 μM, coumestrol 20 μM

IC50 [1, 9]: > 400 µM
IC50 [2]: > 400 µM
SMILES: CC1OC(OCC2OC(Oc3c(-c4ccc(O)cc4)oc4cc(O)cc(O)c4c3=O)C(O)C(O)C2O)C(O)C(O)C1O (centres unmarked) [Nicotiflorine]

decrease of Aβ25–35 self-aggregation compared to control [3]: 34.90%
Fluorescence (Emission = 490 nm / Excitation = 446 nm), replicates 1-3 [3, 10]: 656.961 and 678.75 and 636.556
SMILES: O=c1c(-c2ccc(O)cc2)coc2cc(O)cc(O)c12 [Genistein]

IC50 [1, 9]: > 400 µM
IC50 [2]: > 400 µM
SMILES: O=c1c(-c2ccc(O)cc2)coc2cc(O[C@@H]3O[C@H](CO)[C@@H](O)[C@H](O)[C@H]3O)cc(O)c12 [Genistin]

IC50 [1, 9]: 1.99 ± 0.68 µM
IC50 [2]: 77.8 ± 2.1 µM
Inhibition Mode ([4]; 0.5 µg MAO-A, 40–160 µM substrate, 25 °C): Competitive
Inhibition Mode ([4]; 0.5 µg MAO-A, 40–160 µM substrate, 25 °C, listed as coumestrol): competitive inhibitor
Ki ([4]; 0.5 µg MAO-A, 40–160 µM substrate, 25 °C, secondary plots, read-out: Inhibition Constant (Ki)): 1.32 µM
1/V Mean [4, 11]: 0.000734 1/(RLU/60min)
RLU Mean [4, 11]: 81783.67 RLU
1/V Mean [4, 12]: 0.001642 1/(RLU/60min)
RLU Mean [4, 12]: 36716 RLU
1/V Mean [4, 13]: 0.002945 1/(RLU/60min)
RLU Mean [4, 13]: 20374 RLU
1/V Mean [4, 14]: 0.000475 1/(RLU/60min)
RLU Mean [4, 14]: 126374 RLU
1/V Mean [4, 15]: 0.000938 1/(RLU/60min)
RLU Mean [4, 15]: 64010.67 RLU
1/V Mean [4, 16]: 0.001597 1/(RLU/60min)
RLU Mean [4, 16]: 37649 RLU
1/V Mean [4, 17]: 0.000261 1/(RLU/60min)
RLU Mean [4, 17]: 229959.3 RLU
1/V Mean [4, 18]: 0.000495 1/(RLU/60min)
RLU Mean [4, 18]: 121308.7 RLU
1/V Mean [4, 19]: 0.000797 1/(RLU/60min)
RLU Mean [4, 19]: 75572 RLU
decrease of Aβ25–35 self-aggregation compared to control [3]: 76.14%
Fluorescence (Emission = 490 nm / Excitation = 446 nm), replicates 1-3 ([3]; Dose-dependent curves, 5 μM): 874.9012 and 872.4322 and 899.9266
Fluorescence (Emission = 490 nm / Excitation = 446 nm), replicates 1-3 ([3]; Dose-dependent curves, 10 μM): 820.955 and 835.446 and 846.767
Fluorescence (Emission = 490 nm / Excitation = 446 nm), replicates 1-3 ([3]; Dose-dependent curves, 20 μM): 725.8814 and 709.3678 and 704.8239
Fluorescence (Emission = 490 nm / Excitation = 446 nm), replicates 1-3 ([3]; Dose-dependent curves, 50 μM): 578.864 and 549.001 and 576.214
Fluorescence (Emission = 490 nm / Excitation = 446 nm), replicates 1-3 ([3]; Dose-dependent curves, 100 μM): 484.285 and 460.697 and 486.519
Fluorescence (Emission = 490 nm / Excitation = 446 nm), replicates 1-3 [3, 10]: 420.995 and 408.908 and 418.89
IC50 ([3]; thioflavin-T assay, read-out: IC50 for inhibition of Aβ25–35 self-aggregation): 37.4 ± 1.7 µM
SMILES: O=c1oc2cc(O)ccc2c2oc3cc(O)ccc3c12 [Coumestrol]
in vitro inhibitory effect against β-secretase [5]: in vitro inhibitory effect
neuroprotective effects in mouse astrocytes [6]: neuroprotective effects

decrease of Aβ25–35 self-aggregation compared to control [3]: 35.54%
Fluorescence (Emission = 490 nm / Excitation = 446 nm), replicates 1-3 [3, 10]: 752.714 and 744.841 and 739.542
SMILES: O=c1c(-c2ccc(O)cc2)coc2cc(O)ccc12 [Daidzein]

IC50 [1, 9]: > 400 µM
IC50 [2]: > 400 µM
SMILES: CC1OC(OCC2OC(Oc3c(-c4ccc(O)cc4)oc4cc(O)cc(O)c4c3=O)C(O)C(O)C2O)C(O)C(O)C1O (centres unmarked) [Kaempferol-3-O-robinobioside]

Fluorescence (Emission = 490 nm / Excitation = 446 nm), replicates 1-3 ([3]; Dose-dependent curves, 5 μM): 714.733 and 699.957 and 732.987
Fluorescence (Emission = 490 nm / Excitation = 446 nm), replicates 1-3 ([3]; Dose-dependent curves, 10 μM): 659.3354 and 647.8281 and 645.7345
Fluorescence (Emission = 490 nm / Excitation = 446 nm), replicates 1-3 ([3]; Dose-dependent curves, 20 μM): 508.323 and 494.704 and 529.05
Fluorescence (Emission = 490 nm / Excitation = 446 nm), replicates 1-3 ([3]; Screening active compound, 20 μM): 446.557 and 456.907 and 436.435
SMILES: COc1cc(/C=C/C(=O)CC(=O)/C=C/c2ccc(O)c(OC)c2)ccc1O [Curcumin, curcumin, reference compound]

IC50 [1, 9]: > 400 µM
IC50 [2]: > 400 µM
SMILES: CC1OC(OCC2OC(Oc3c(-c4ccc(O)cc4)oc4cc(OC5OC(C)C(O)C(O)C5O)cc(O)c4c3=O)C(O)C(O)C2O)C(O)C(O)C1O (centres unmarked) [Robinin, kaempferol 3-O-robinoside-7-O-rhamnoside]

More lines, now with the values behind:

SMILES: CC1OC(OCC2OC(Oc3c(-c4ccc(O)c(O)c4)oc4cc(O)cc(O)c4c3=O)C(O)C(O)C2O)C(O)C(O)C1O (centres unmarked) [Quercetin-3-O-robinobioside]
IC50 [1]: > 400 µM
IC50 [2]: > 400 µM

SMILES: CC(C)=CCc1cc2c(cc1O)oc(=O)c1c3ccc(O)cc3oc21 [psoralidin]
inhibitory effect against MAO-A [7]: did not show a significant inhibitory effect
inhibitory effect against MAO-B [8]: did not show a significant inhibitory effect

SMILES: O=c1c(-c2ccc(O)cc2)coc2cc(O[C@@H]3O[C@H](CO)[C@@H](O)[C@H](O)[C@H]3O)ccc12 [Daidzin]
IC50 [1]: > 400 µM
IC50 [2]: > 400 µM

SMILES: C[C@@H]1O[C@@H](OC[C@H]2O[C@@H](Oc3c(-c4ccc(O)c(O)c4)oc4cc(O)cc(O)c4c3=O)[C@H](O)[C@@H](O)[C@@H]2O)[C@H](O)[C@H](O)[C@H]1O [Rutin]
IC50 [1]: 387 ± 4.63 µM
inhibitory activity against MAO-A [1]: weak MAO-A inhibitory activity
IC50 [2]: > 400 µM
decrease of Aβ25–35 self-aggregation compared to control [3]: 49.31%
Fluorescence (Emission = 490 nm / Excitation = 446 nm), replicates 1-3 [3, 10]: 556.703 and 574.097 and 523.388

SMILES: COc1c(CC=C(C)C)c(O)cc2oc(=O)c3c4ccc(O)cc4oc3c12 [glycyrol]
IC50 ([7]; read-out: activity against MAO-A (no activity below)): > 40 µM
IC50 ([8]; read-out: IC50 against MAO-B): 29.5 µM
